Measurements published in patent publication US12264175B2, “Compositions and methods for capping RNAS” (Verve Therapeutics, Inc., priority 2020, dated 2025).

What was measured:
T7 RNA polymerase [1] = biological target: T1, T7 RNA polymerase (Escherichia phage T7, UniProt P00573); experiment: One-pot IVT preparation of 5′ capped mRNA (production yield, full-length purity); format: biochemical
Excerpt: The 5′ end initiator, 1007a, (FIG. 1A) was used to prepare capped mRNAs that encode for ABE and luciferase proteins. In this Example and for all others described herein, the ABE mRNA sequence was MA004 (SEQ. 0001) and the luciferase mRNA sequence was the Photinus pyralis (Firefly) luciferase sequence described in NCBI reference sequence XM_031473197.1. These mRNA can be produced by different methods well known in the art. One of such methods used herein was in vitro transcription (IVT) using T7 polymerase; or in other embodiments, additional RNA polymerase variants. This IVT reaction to produce mRNA used a linearized DNA template that comprised a T7 polymerase promoter and associated regulatory sequences, mRNA coding sequence (CDS), 3′ and 5′ untranslated regions (UTRs), poly A tail, and additional sequence elements to facilitate and modulate mRNA stability and in vivo performance. Prior to IVT, the DNA template was in the form of a plasmid; in other embodiments the DNA template is in the form of a PCR product, synthetic DNA product, or any other double-stranded DNA construct. Linearization of the DNA template with a restriction digestion enzyme was performed in order to promote run-off transcription. The typical IVT reaction included T7 polymerase, DNA template, RNase inhibitor, cap analog, inorganic pyrophosphatase, and the naturally occurring ribonucleoside triphosphates (NTPs) such as GTP, ATP, CTP, and N1-methyl pseudouridine triphosphosphate; in some embodiments NTPs include UTP or modified NTPs such as pseudouridine, 5′methyl cytidine, 5-methoxy uridine, N6-methyl adenosine, and N4-acetyl cytidine. The 1007a 5′ end initiator was added to the IVT reaction along with ATP, GTP, CTP, and N1-methyl pseudouridine triphosphate at a 1:1 initiator-to-NTP molar ratio and additional ratios described in Example 5 (B). Poly A tail was encoded in the DNA template that was added to the mRNA during transcription; in some instances, poly A tail is added to the mRNA after the IVT reaction using an RNA ligase enzyme. Finally, T7 RNA polymerase was added to the mixture and the IVT reaction was run at 37° C. for about 1-4 hours. After IVT, DNase was added to the transcription mixture to remove DNA template; in some instances, residual DNA is removed with chromatography. This mRNA was purified to remove residual reaction products and impurities, and stored in 1 mM citrate buffer. Characterization of production yield and mRNA full-length purity was performed by UV spectrometry and capillary gel electrophoresis methods, which are known in the art. […] Similar IVT and purification process are used to produce mRNA encoding SpCas9, Cas12b, CBE, and other ABEs; in all cases the DNA template, reaction conditions, and purification parameters are optimized for the specific gene of interest.
Similarly, ABE encoding mRNA with 5′ end region, 1107a, (FIG. 1B) was produced and characterized as described in the paragraph above.

T7 RNA polymerase [2] = biological target: T1, T7 RNA polymerase; experiment: mRNA capping efficiency at adjusted 5′ end initiator-to-NTP molar ratio; format: biochemical; details: initiator-to-NTP ratio ranging from 1:1 down to 1:1.67; FIG. 4
Excerpt: The amount of capped mRNA produced in an IVT reaction is directly proportional to the ratio of cap to NTPs in the reaction mixture (Stepinski, J. et al., RNA. 2006, 7, 1486-1495). The 5′ end initiator-to-NTP ratio in an IVT reaction impacts the amount of mRNA that becomes capped primarily because cap can compete with NTPs for insertion at the 5′ end of mRNA. A typical initiator-to-NTP ratio for a dinucleotide cap structure is 4:1 and a typical molar initiator-to-NTP ratio for a trinucleotide cap structure is 1:1; where NTP represents either GTP, ATP, CTP, UTP, or modified NTPs such as N1-methyl pseudouridine. At both a 4:1 ratio for a dinucleotide cap and 1:1 ratio for a trinucleotide cap, the resultant mRNA will have a mixture of transcripts of which at least 80% are capped at the 5′ end and up to 20% are uncapped, this is also described as a capping efficiency of 80%. Capping efficiency is the measured amount of capped mRNA divided by the total amount of capped mRNA plus uncapped mRNA. Therefore, trinucleotide caps can be considered more efficient capping compounds than dinucleotide caps since less input cap is required to produce a final mRNA product that contains a similar amount of capped 5′ ends. The ability of trinucleotide caps to produce a high (>90%) capping efficiency at a lower initiator-to-NTP ratio than dinucleotide caps, in some instances, can be attributed to the increased affinity of a trinucleotide cap for the DNA template. In some cases, the optimal cap-to-NTP ratio may vary with the composition of the cap structure, wherein modification of cap structures may affect capping efficiency. […]
The amount of capped mRNA relative to the total amount of mRNA that is present, i.e. capping efficiency, can be measured by numerous methods well known in the art. […]

[3] = tested on: primary human liver hepatocytes (hPH); experiment: ABE protein levels by ELISA after mRNA transfection of primary human hepatocytes; format: cell-based; details: ABE mRNA transfected to hPH cells, FIG. 6
Procedure: Primary human liver hepatocytes (hPH), primary cynomolgus liver hepatocytes (cPH), or primary mouse liver hepatocytes (mPH) are cultured per the manufacturer's protocol. In brief, the cells are thawed and resuspended in hepatocyte thawing medium followed by centrifugation at 100 g for 10 min at 4° C. The supernatant is discarded, and the pelleted cells resuspended in hepatocyte plating medium. Each vial contains ˜5 million cells that are used for plating one 24-well plate. Plated cells are allowed to settle and adhere for 4-6 h in a tissue culture incubator at 37° C. under 5% CO2 atmosphere. After incubation, cells are checked for monolayer formation. The incubating media is then replaced with fresh hepatocyte maintenance media The cells thus are ready for transfection using a transfection agent such as MessengerMAX. Solution A: desired amount of single guide RNA (sgRNA) is mixed with 1:1 wt ratio of mRNA in OptiMEM. Solution B: MessengerMAX in OptiMEM. After mixing solutions A and B, the mixture is incubated at room temperature for 20 minutes, and then the incubated solution is added dropwise to each well of cells. The cells are then allowed to remain at 37° C. for 3 days. […] For example, mRNA with 5′ end region motifs, 1007a and 1107a, were transfected to hPH cells as described above, the cells were lysed, and ABE protein levels were measured by ELISA. […]

T7 RNAP = T7 RNAP (Escherichia phage T7, UniProt P00573); details: first initiating NTP / guanosine; J. Mol. Biol. (2007) 370, 256-268; cited from earlier work
Sequence of T7 RNAP (P00573 whole entry): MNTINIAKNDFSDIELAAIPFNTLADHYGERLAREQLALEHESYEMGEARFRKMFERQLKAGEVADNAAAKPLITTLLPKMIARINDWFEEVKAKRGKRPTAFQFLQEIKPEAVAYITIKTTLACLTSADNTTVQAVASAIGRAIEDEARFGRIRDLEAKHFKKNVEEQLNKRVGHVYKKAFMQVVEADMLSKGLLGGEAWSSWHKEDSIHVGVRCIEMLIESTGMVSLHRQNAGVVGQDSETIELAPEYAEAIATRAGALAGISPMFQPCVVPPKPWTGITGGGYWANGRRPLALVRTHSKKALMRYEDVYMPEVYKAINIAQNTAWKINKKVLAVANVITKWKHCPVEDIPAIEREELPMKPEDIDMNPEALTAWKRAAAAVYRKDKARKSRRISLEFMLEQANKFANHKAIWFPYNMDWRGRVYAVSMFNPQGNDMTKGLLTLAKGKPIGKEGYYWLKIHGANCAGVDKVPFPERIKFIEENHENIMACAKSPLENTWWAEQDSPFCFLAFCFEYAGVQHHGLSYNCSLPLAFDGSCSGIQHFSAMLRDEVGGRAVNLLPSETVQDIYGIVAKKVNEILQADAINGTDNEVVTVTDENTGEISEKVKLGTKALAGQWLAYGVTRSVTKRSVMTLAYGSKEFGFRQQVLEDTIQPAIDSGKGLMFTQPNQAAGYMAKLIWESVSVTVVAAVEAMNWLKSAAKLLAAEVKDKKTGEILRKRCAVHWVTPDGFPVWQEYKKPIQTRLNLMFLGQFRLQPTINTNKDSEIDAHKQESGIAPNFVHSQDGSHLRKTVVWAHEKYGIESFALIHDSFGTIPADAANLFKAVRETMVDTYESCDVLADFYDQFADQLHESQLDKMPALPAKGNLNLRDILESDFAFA

T1 sequence (P00573 whole entry): as above

Row | Structure (SMILES) | final production yield of mRNA (T7 RNA polymerase [1]; ABE encoding mRNA made with the 5′ end initiator, T7 IVT, FIG. 2) | mRNA full-length purity (T7 RNA polymerase [1]; ABE encoding mRNA made with the 5′ end initiator, capillary gel electrophoresis, FIG. 3) | amount of full-length mRNA produced (T7 RNA polymerase [1]; initiator-to-NTP ratio ranging from 1:1 down to 1:5, FIG. 3) | capping efficiency (T7 RNA polymerase [2]) [%] | ABE protein levels as compared to mRNA with 5′ end region motif 1002a [3] | Kd (T7 RNAP) [µM]
1 | COC1C(OP(=O)(O)OCC2OC(n3cnc4c(=O)[nH]c(N)nc43)C(O)C2O)C(COP(=O)(O)OP(=O)([S-])OP(=O)(O)OCC2OC(n3c[n+](C)c4c(=O)[nH]c(N)nc43)C(O)C2O)OC1n1cnc2c(N)ncnc21 (stereo not drawn) [1107a, m^7G(ppsp)Am(p)G] | about 3.3 mg per 1 ml of IVT reaction | about 86% | did not reduce | > 90 | similar | 
2 | Nc1nc2c(ncn2[C@@H]2O[C@H](COP(=O)(O)OP(=O)(O)OP(=O)(O)O)[C@@H](O)[C@H]2O)c(=O)[nH]1 [GTP] |  |  |  |  |  | 2000
